Data taken from patent publication US20170218375A1, “MORPHOLINOS, MORPHOLINO UPREGULATING, AND ASSOCIATED METHODS” (University of Utah Research Foundation, priority 2011, published 2017).
{Dendrimer} = dendrimer conjugate (vivo-morpholino)

What was measured:
[1] = system: sVEGFR2 mRNA; experiment: RT-PCR of sVEGFR2 mRNA in mouse MS-1 cell line; assay type: cell-based
Description: Because VEGFR2_MOe13 decreases mbVEGFR2 and increases sVEGFR2, it is expected that VEGFR2_MOe13 can inhibit angiogenesis and lymphangiogenesis in vivo. To study the effect of VEGFR2_MOe13 in animal models, moVEGFR2_MOe13 was created that targets the exon13-intron13 junction of the mouse VEGFR2 gene. By RT-PCR analysis, it was found moVEGFR2_MOe13 increased sVEGFR2 mRNA and decreased mbVEGFR2 mRNA in the mouse MS-1 cell line (FIG. 7A). […] FIGS. 7(f, g) show the mean area of corneal neovascularization and lymphangiogenesis respectively (n=13-16). Risk factors (p-value) were calculated by two-tail student's t-test (*: p<0.05, **p<0.01, ***p<0.001). Error bar is ±s.e.m.
Each morpholino oligomer was purchased from Gene Tools (Philomath, Oreg.). The sequences of each morpholino oligomer and primers for PCR are listed in supplemental Table. […] The cells were washed three times and fluorescence was detected by a FACScan Analyzer (BD Biosciences, San Jose, Calif.). […]
cDNAs were synthesized from 400 ng total RNA using Omniscript RT kit (Qiagen, Valencia, Calif.) and Oligo-dT primer(dT20) according to the manufacturer's instructions. Real-time PCR was performed using QuantiTect SYBR Green PCR Kit (Qiagen, Valencia, Calif.) and 1 μl of cDNA. […]

[2] = system: suture-induced corneal neovascularization and lymphangiogenesis; experiment: Mouse corneal suture model (CD31 and LYVE-1 stained cornea flatmount); assay type: in vivo; details: for suppression of suture-induced neovascularization: CD31; for suppression of lymphangiogenesis: LYVE-1
Procedure: In another aspect, a corneal suture model can be used to evaluate angiogenesis. For the one week subarm, each morpholino or DPBS was injected subconjunctivally one day prior to and four days after suturing; the corneas were harvested at seven days post suturing. For the two week subarm, each morpholino or DPBS was injected subconjunctivally one day prior and four, seven and ten days after suturing; the corneas were harvested at fourteen days. CD31 and LYVE-1 were used as markers of neovascularization and lymphangiogenesis, respectively. FIGS. 10 and 11 representative images of CD31 stained corneas at one week and LYVE-1 stained corneas at two weeks, respectively.
Under anesthesia, 15 μl of moVEGFR2_MOe13 (40 ng/μl), STD_MO (40 ng/μl) or DPBS was injected subconjunctivally into two different places one day prior to the placement of 2 symmetrical 11-0 nylon sutures, followed by re-injection at four days after suture placement. Eyes were harvested 7 days after suture placement. In a second group, 15 μl of moVEGFR2_MOe13 (40 ng/μl), STD_MO (40 ng/μl) or DPBS was injected subconjunctivally into two different places one day prior to the placement of 2 symmetrical 11-0 nylon sutures. Subconjunctival injections were repeated at four, seven and ten days after suture placement. Eyes were harvested 14 days after suture placement. The corneas were fixed in acetone at room temperature for 20 minutes. After 4 washes in PBST (0.1% Tween20/PBS), the corneas were incubated in 3% BSA/PBS at 4° C. for 3 days. To detect CD31 and LYVE1, corneas were incubated in 3% BSA/PBS with FITC-conjugated rat anti-CD31 antibody (553372, 1:500, BD Biosciences, San Jose, Calif.) or rabbit anti-LYVE-1 (ab14917, 1:200, Abcam, Cambridge, Mass.) overnight at 4° C. After 3 washes in PBST, the corneas were incubated in 3% BSA/PBS with Alexa Fluor® 546 conjugated goat anti-rabbit IgG (A11071, 1:2000, Invitrogen Corporation, Carlsbad, Calif.) for one hour at room temperature. After 4 washes in PBST, corneas were mounted on slide glass with Fluoro-gel (Electron Microscopy Sciences, Hatfield, Pa.). Fluorescence was observed by fluorescence microscope (Carl Zeiss MicroImaging, Inc., Thornwood, N.Y.). The data for each suture was calculated by ImageJ separately. Areas where sutures had fallen out were not included in the final calculations.

5′-cacccagggatgcctccatacCTAG-3′ (antisense CACCCAGGGATGCCTCCATACCTAG; all phosphorodiamidate morpholino (PMO), 3' {Dendrimer}) [moVEGFR2_MOe13, morpholino that targets the exon13-intron13 junction of the mouse VEGFR2 gene; in vivo conjugated with a dendrimer (vivo-morpholino)]
sVEGFR2 mRNA by RT-PCR [1]: increased
suppression of suture-induced neovascularization ([2]; 1 week, 15 μl of 40 ng/μl subconjunctivally one day prior to and four days after suturing, compared to DPBS, p<0.001): 52.2%
suppression of lymphangiogenesis ([2]; 2 weeks after suture placement, compared to DPBS, p<0.05): 27.8%
suppression of suture-induced neovascularization ([2]; 2 weeks, 15 μl of 40 ng/μl subconjunctivally one day prior and four, seven and ten days after suturing, compared to DPBS, p<0.05): 29.6%
suppression of lymphangiogenesis ([2]; one week after suture placement): did not suppress
